From patent US20230089073A1 (Carmot Therapeutics, Inc., priority 2021, published 2023)

Biological target: T1, human GLP-1 receptor (Homo sapiens, UniProt P43220)
T1 construct: expressed in transfected cells
Test: GLP-1R cAMP Assay
Format: cell-based
Details: cAMP accumulation in CHO cells stably overexpressing the human GLP-1 receptor; 30 min treatment; HitHunter cAMP kit; read-out: EC50
How it was run: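 Luminescent enzyme-complementation detection of cAMP, read after cell lysis and overnight incubation, with dose-response curve fitting. Stimulation lasted 30 min, using 20-point triplicate dosing on CHO cells (10,000 per well) stably overexpressing human GLP-1R.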

T1 sequence (P43220 24-463): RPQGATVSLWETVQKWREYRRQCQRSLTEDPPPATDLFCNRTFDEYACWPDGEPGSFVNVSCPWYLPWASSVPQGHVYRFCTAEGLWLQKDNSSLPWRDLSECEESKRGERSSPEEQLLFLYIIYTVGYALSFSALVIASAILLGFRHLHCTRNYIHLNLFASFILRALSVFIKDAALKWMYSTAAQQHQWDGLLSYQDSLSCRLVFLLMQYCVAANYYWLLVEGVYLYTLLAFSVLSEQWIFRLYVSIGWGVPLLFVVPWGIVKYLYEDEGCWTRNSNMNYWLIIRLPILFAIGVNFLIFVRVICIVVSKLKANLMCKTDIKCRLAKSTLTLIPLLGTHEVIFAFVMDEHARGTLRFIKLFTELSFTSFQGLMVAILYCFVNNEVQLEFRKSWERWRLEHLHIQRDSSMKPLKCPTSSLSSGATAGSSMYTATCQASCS

Row | SMILES | EC50
1 | CCn1cncc1Cn1c(CN2CCC(Oc3ccccc3COc3ccc(Cl)cc3Cl)CC2)nc2ccc(C(=O)O)cc21 [Compound 272, 2-[(4-{2-[(2,4-dichlorophenoxy)methyl]phenoxy}piperidin-1-yl)methyl]-1-[(1-ethyl-1H-imidazol-5-yl)methyl]-1H-1,3-benzodiazole-6-carboxylic acid] | 0.05 to 0.5 µM
2 | O=C(O)c1ccc2nc(CN3CCC(Oc4ccnc(COc5ccc(C6CC6)cc5F)n4)CC3)n(C[C@@H]3CCO3)c2c1 [Compound 475, 2-{[4-({2-[(4-cyclopropyl-2-fluorophenoxy)methyl]pyrimidin-4-yl}oxy)piperidin-1-yl]methyl}-1-{[(2S)-oxetan-2-yl]methyl}-1H-1,3-benzodiazole-6-carboxylic acid] | < 0.05 µM
3 | Cc1ccc(N(C)Cc2cccc(C(=O)N3CCN(Cc4nc5ccc(C(=O)O)cc5n4C[C@@H]4CCO4)CC3)c2)c(Cl)c1 [Example 78, (S)-2-((4-(3-(((2-Chloro-4-methylphenyl)(methyl)amino)methyl)benzoyl)piperazin-1-yl)methyl)-1-(oxetan-2-ylmethyl)-1H-benzo[d]imidazole-6-carboxylic acid] | > 0.5 µM
4 | O=C(O)c1ccc2nc(CN3CCC(Oc4cccc(COc5ccc(Cl)cc5F)n4)CC3)n(Cc3ccno3)c2c1 [Compound 270, 2-{[4-({6-[(4-chloro-2-fluorophenoxy)methyl]pyridin-2-yl}oxy)piperidin-1-yl]methyl}-1-[(1,2-oxazol-5-yl)methyl]-1H-1,3-benzodiazole-6-carboxylic acid] | < 0.05 µM
5 | CCN(c1cccc(C(=O)N2CCN(Cc3nc4ccc(C(=O)O)cc4n3C[C@@H]3CCO3)CC2)c1)c1ccc(C)cc1Cl [Compound 52, 2-[(4-{3-[(2-chloro-4-methylphenyl)(ethyl)amino]benzoyl}piperazin-1-yl)methyl]-1-{[(2S)-oxetan-2-yl]methyl}-1H-1,3-benzodiazole-6-carboxylic acid] | < 0.05 µM
6 | N#Cc1cc(F)c(F)cc1OCc1nccc(OC2CCN(Cc3nc4c(F)cc(C(=O)O)cc4n3C[C@@H]3CCO3)CC2)n1 [Compound 505, 2-{[4-({2-[(2-cyano-4,5-difluorophenoxy)methyl]pyrimidin-4-yl}oxy)piperidin-1-yl]methyl}-4-fluoro-1-{[(2S)-oxetan-2-yl]methyl}-1H-1,3-benzodiazole-6-carboxylic acid] | < 0.05 µM
7 | N#Cc1cc(Cl)ccc1OCc1cccc(OC2CCN(Cc3nc4ccc(C(=O)O)cc4n3Cc3ncco3)CC2)n1 [Compound 251, 2-{[4-({6-[(4-chloro-cyanophenoxy)methyl]pyridin-2-yl}oxy)piperidin-1-yl]methyl}-1-[(1,3-oxazol-2-yl)methyl]-1H-1,3-benzodiazole-6-carboxylic acid] | > 0.5 µM
8 | CCn1cncc1Cn1c(CN2CCC(C(F)c3cccc(COc4ccc(C)cc4Cl)c3)CC2)nc2ccc(C(=O)O)cc21 (racemic) [Example 131, 2-((4-((3-((2-Chloro-4-methylphenoxy)methyl)phenyl)fluoromethyl)piperidin-1-yl)methyl)-1-((1-ethyl-1H-imidazol-5-yl)methyl)-1H-benzo[d]imidazole-6-carboxylic acid] | < 0.05 µM
9 | O=C(O)c1ccc2nc(CN3CCC(Oc4cccc(COc5ccc(Cl)cc5Cl)c4)CC3)n(Cc3ccno3)c2c1 [Example 208, 2-((4-(3-((2,4-Dichlorophenoxy)methyl)phenoxy)piperidin-1-yl)methyl)-1-(isoxazol-5-ylmethyl)-1H-benzo[d]imidazole-6-carboxylic acid] | < 0.05 µM
10 | N#Cc1ccc(OCc2nccc(O[C@H]3CCN(Cc4nc5ccc(C(=O)O)cc5n4C[C@@H]4CCO4)[C@@H](CF)C3)n2)c(F)c1 [Example 490, 2-(((2R,4S)-4-((2-((4-Cyano-2-fluorophenoxy)methyl)pyrimidin-4-yl)oxy)-2-(fluoromethyl)piperidin-1-yl)methyl)-1-(((S)-oxetan-2-yl)methyl)-1H-benzo[d]imidazole-6-carboxylic acid] | < 0.05 µM
11 | Cc1ccc(OCc2ccc(C(=O)N3CCN(Cc4nc5ccc(C(=O)O)cc5n4C[C@@H]4CCO4)CC3)o2)c(Cl)c1 [Compound 38, 2-[(4-{5-[(2-chloro-4-methylphenoxy)methyl]furan-2-carbonyl}piperazin-1-yl)methyl]-1-{[(2S)-oxetan-2-yl]methyl}-1H-1,3-benzodiazole-6-carboxylic acid] | > 0.5 µM
12 | O=C(O)c1ccc2nc(CN3CCC(Oc4ccnc(COc5ccc(Cl)cc5Cl)c4)CC3)n(CC3CNC3)c2c1 [Compound 280, 1-[(azetidin-3-yl)methyl]-2-{[4-({2-[(2,4-dichlorophenoxy)methyl]pyridin-4-yl}oxy)piperidin-1-yl]methyl}-1H-1,3-benzodiazole-6-carboxylic acid] | < 0.05 µM
13 | C[C@H]1C[C@@H](Oc2ccnc(COc3ccc(C4CC4)cc3C#N)n2)CCN1Cc1nc2c(F)cc(C(=O)O)cc2n1C[C@@H]1CCO1 [Compound 509, 2-(((2S,4S)-4-((2-((2-cyano-4-cyclopropylphenoxy)methyl)pyrimidin-4-yl)oxy)-2-methylpiperidin-1-yl)methyl)-4-fluoro-1-(((S)-oxetan-2-yl)methyl)-1H-benzo[d]imidazole-6-carboxylic acid] | < 0.05 µM
14 | N#Cc1ccc(OCc2cc(OC3CCN(Cc4nc5ccc(C(=O)O)cc5n4C[C@@H]4CCO4)CC3)ccn2)c(Cl)c1 [Compound 358] | < 0.05 µM
15 | CCn1cncc1Cn1c(CN2CCC(Cc3cc(F)cc(COc4ccc(Cl)cc4Cl)c3)CC2)nc2ccc(C(=O)O)cc21 [Compound 133, 2-{[4-({3-[(2,4-dichlorophenoxy)methyl]-5-fluorophenyl}methyl)piperidin-1-yl]methyl}-1-[(1-ethyl-1H-imidazol-5-yl)methyl]-1H-1,3-benzodiazole-6-carboxylic acid] | < 0.05 µM
16 | C[C@H]1C[C@@H](Oc2ccnc(COc3ccc(C4CC4)cc3C#N)n2)CCN1Cc1nc2ccc(C(=O)O)cc2n1C[C@@H]1CCO1 [Compound 510, 2-(((2S,4S)-4-((2-((2-cyano-4-cyclopropylphenoxy)methyl)pyrimidin-4-yl)oxy)-2-methylpiperidin-1-yl)methyl)-1-(((S)-oxetan-2-yl)methyl)-1H-benzo[d]imidazole-6-carboxylic acid] | < 0.05 µM
17 | O=C(O)c1ccc2nc(CN3CCC(Oc4ccnc(COc5ccc(F)cc5Cl)n4)CC3)n(C[C@H]3CCN3C(=O)c3ccon3)c2c1 [Example 483, (R)-2-((4-((2-((2-Chloro-4-fluorophenoxy)methyl)pyrimidin-4-yl)oxy)piperidin-1-yl)methyl)-1-((1-(isoxazole-3-carbonyl)azetidin-2-yl)methyl)-1H-benzo[d]imidazole-6-carboxylic acid] | < 0.05 µM
18 | O=C(O)c1ccc2nc(CN3CCC(Oc4ccnc(COc5ccc(F)cc5C(F)F)c4)CC3)n(C[C@@H]3CCO3)c2c1 [Compound 357] | < 0.05 µM
19 | N#Cc1ccccc1Oc1ccccc1C(=O)N1CCN(Cc2nc3ccc(C(=O)O)cc3n2C[C@@H]2CCO2)CC1 [Compound 4, 2-({4-[2-(2-cyanophenoxy)benzoyl]piperazin-1-yl}methyl)-1-{[(2S)-oxetan-2-yl]methyl}-1H-1,3-benzodiazole-6-carboxylic acid] | > 0.5 µM
